43 compounds from patent publication US10696675B2, “Imidazopyridopyrimidine derivative compound and use thereof” (HANMI PHARMACEUTICAL CO., LTD., priority 2016, dated 2020) can be followed below.

SMILES strings stand for the structures.

The subject of this assay is HUH7 cells. Description: Proliferation inhibitory effect for HUH7 cells (SRB assay). To be noted: Homo sapiens, Huh-7, 72 hours, GI50, read-out: IC50 HUH7 Cell Line. It counts as cell-based. The procedure:
Test Example 2: Measuring Inhibitory Effect of FGFR Inhibitor Using Cell Line
The test was carried out for identifying a proliferation inhibitory effect of the compound of the present invention for HUH7 cells. HUH7 cell lines were counted and 5.0×10^3 cells were inoculated per well in a 96 well plate. After the innoculation, the cells were cultured for 24 hours in a 37 □ and 5% carbon dioxide (CO2) incubator. On the next day, the synthesized compounds were each diluted and prepared. The diluted compounds were introduced to the cell lines inoculated the previous day by concentrations, and reacted for 72 hours in a 37 □ and 5% carbon dioxide (CO2) incubator. However, to a positive control to which the compound was not added, 0.1% dimethyl sulfoxide (DMSO) diluted with a medium was introduced. To a negative control plate, a trichloroacetic acid (TCA) solution was introduced, and fixed at 4 □. After reacting for 72 hours, the medium including the compound was removed, a TCA solution was added thereto, and the cells were fixed for 30 minutes to 60 minutes at 4 □. The TCA solution was discarded, the plate was washed off with distilled water and then dried in the air. A 0.4% sulforhodamin B (SRB) solution was added to the plate and dyed for 10 minutes at room temperature. The plate was washed off with tap water including a 1% acetic acid solution, and then dried in the air. A 10 mM Trizma base solution was added to dissolve the solid SRB. Using a microplate reader, optical density (O.D. value) was measured at 540 nm. A GI50 value of each of the compounds was calculated using GraphPad Prism V6.0 Software.
In general terms: Sulforhodamine B stains cellular protein and so reports cell mass.
Regarding `COc1cc(OC)c(Cl)c(-c2cc3cnc(Nc4ccc(N5CCOCC5)cc4NC(=O)/C=C\Cl)nc3n3ccnc23)c1Cl` [compound 47], the IC50 was below 0.05 µM.

Consider `C=CC(=O)Nc1cc(F)c(F)cc1Nc1ncc2cc(-c3c(F)c(OC)cc(OC)c3F)c3nccn3c2n1` [compound 77], for which the IC50 was 0.05 to 0.5 µM.

For the compound `C=CC(=O)Nc1cccc(C)c1Nc1ncc2cc(-c3cc(OC)cc(OC)c3)c3nccn3c2n1` [compound 8], the IC50 was above 0.5 µM.

`C=CC(=O)Nc1cc(N2CCOCC2)ccc1Nc1ncc2cc(-c3c(F)c(OC)cc(OC)c3F)c3nccn3c2n1` [compound 73]: the 50% inhibitory concentration (IC50) is below 0.05 µM.

Consider `C=CC(=O)Nc1cc(N2CCOCC2)cc(F)c1Nc1ncc2cc(-c3c(Cl)c(OC)cc(OC)c3Cl)c3nccn3c2n1` [compound 67], for which the IC50 fell in the range of 0.05 to 0.5 µM.

For `C=CC(=O)Nc1cc(F)ccc1Nc1ncc2cc(-c3c(Cl)c(OC)cc(OC)c3Cl)c3nccn3c2n1` [compound 14], the IC50 lay in the range of 0.05 to 0.5 µM.

`C=CC(=O)Nc1cc(Cl)ccc1Nc1ncc2cc(-c3c(Cl)c(OC)cc(OC)c3Cl)c3nccn3c2n1` [compound 15]: the IC50 lay within 0.05 to 0.5 µM.

For `C=CC(=O)Nc1cc(N2CCOCC2)cc(Cl)c1Nc1ncc2cc(-c3c(Cl)c(OC)cc(OC)c3Cl)c3nccn3c2n1` [compound 68], the half-inhibitory concentration (IC50) was above 0.5 µM.

In the case of `C=CC(=O)Nc1cc(N2CCN(C3CC3)CC2)ccc1Nc1ncc2cc(-c3c(Cl)c(OC)cc(OC)c3Cl)c3nccn3c2n1` [compound 51], the IC50 is 0.05 to 0.5 µM.

Regarding `C=CC(=O)Nc1cc(F)cc(C)c1Nc1ncc2cc(-c3c(Cl)c(OC)cc(OC)c3Cl)c3nccn3c2n1` [compound 64], the half-inhibitory concentration (IC50) was above 0.5 µM.

For `C=CC(=O)Nc1cc(O[C@@H]2CCOC2)c(F)cc1Nc1ncc2cc(-c3c(Cl)c(OC)cc(OC)c3Cl)c3nccn3c2n1` [compound 59], the half-inhibitory concentration (IC50) is below 0.05 µM.

Regarding `C=CC(=O)Nc1cc(N2CCOCC2)cc(OC)c1Nc1ncc2cc(-c3c(Cl)c(OC)cc(OC)c3Cl)c3nccn3c2n1` [compound 65], the half-maximal inhibitory concentration (IC50) was in the range of 0.05 to 0.5 µM.

On to `C=CC(=O)Nc1cc(C#N)ccc1Nc1ncc2cc(-c3c(Cl)c(OC)cc(OC)c3Cl)c3nccn3c2n1` [compound 17], for which the 50% inhibitory concentration (IC50) was in the range of 0.05 to 0.5 µM.

As to `C=CC(=O)Nc1cc(N2CCOCC2)cnc1Nc1cc2c(cn1)cc(-c1c(Cl)c(OC)cc(OC)c1Cl)c1nccn12` [compound 86], the half-maximal inhibitory concentration (IC50) is below 0.05 µM.

`C=CC(=O)Nc1cc(C)ccc1Nc1ncc2cc(-c3c(Cl)c(OC)cc(OC)c3Cl)c3nccn3c2n1` [compound 19]: the 50% inhibitory concentration (IC50) is below 0.05 µM.

In the case of `C=CC(=O)Nc1cc(F)cc(F)c1Nc1ncc2cc(-c3c(F)c(OC)cc(OC)c3F)c3nccn3c2n1` [compound 76], the IC50 fell in the range of 0.05 to 0.5 µM.

Regarding `C=CC(=O)Nc1cn(C)nc1Nc1ncc2cc(-c3c(Cl)c(OC)cc(OC)c3Cl)c3nccn3c2n1` [compound 71], the 50% inhibitory concentration (IC50) was in the range of 0.05 to 0.5 µM.

On to `C=CC(=O)NC1COCC1Nc1ncc2cc(-c3c(Cl)c(OC)cc(OC)c3Cl)c3nccn3c2n1` (stereo not shown) [compound 3], for which the IC50 is 0.05 to 0.5 µM.

Turning to `C=CC(=O)Nc1cccnc1Nc1ncc2cc(-c3c(Cl)c(OC)cc(OC)c3Cl)c3nccn3c2n1` [compound 69], the IC50 lay within 0.05 to 0.5 µM.

Regarding `C=CC(=O)Nc1cccc(Nc2ncc3cc(-c4c(Cl)c(OC)cc(OC)c4Cl)c4nccn4c3n2)c1` [compound 7], the 50% inhibitory concentration (IC50) was below 0.05 µM.

As for `C=CC(=O)NC1CCCCC1Nc1ncc2cc(-c3c(Cl)c(OC)cc(OC)c3Cl)c3nccn3c2n1` (stereo not shown) [compound 2], the 50% inhibitory concentration (IC50) is 0.05 to 0.5 µM.

For the compound `C=CC(=O)Nc1ccc(F)cc1Nc1ncc2cc(-c3c(Cl)c(OC)cc(OC)c3Cl)c3nccn3c2n1` [compound 12], the IC50 was in the range of 0.05 to 0.5 µM.

Consider `C=CC(=O)Nc1cc(OCC)ccc1Nc1ncc2cc(-c3c(Cl)c(OC)cc(OC)c3Cl)c3nccn3c2n1` [compound 27], for which the 50% inhibitory concentration (IC50) was below 0.05 µM.

Turning to `C=CC(=O)Nc1cc(OC2CCN(CC)CC2)ccc1Nc1ncc2cc(-c3c(Cl)c(OC)cc(OC)c3Cl)c3nccn3c2n1` [compound 56], the IC50 is below 0.05 µM.

On to `C#Cc1ccc(Nc2ncc3cc(-c4c(Cl)c(OC)cc(OC)c4Cl)c4nccn4c3n2)c(NC(=O)C=C)c1` [compound 16], for which the IC50 is 0.05 to 0.5 µM.

`COc1cc(OC)c(Cl)c(-c2cc3cnc(-c4cccc(N5CCOCC5)c4)nc3n3ccnc23)c1Cl` [Synthesis Example 80, 4-(3-(6-(2,6-dichloro-3,5-dimethoxyphenyl)imidazo[1′,2′:1,6]pyrido[2,3-d]pyrimidin-2-yl)phenyl)morpholine]: the IC50 was above 0.5 µM.

For `C=CC(=O)Nc1cccc(Cl)c1Nc1ncc2cc(-c3c(F)c(OC)cc(OC)c3F)c3nccn3c2n1` [compound 79], the IC50 fell in the range of 0.05 to 0.5 µM.

For the compound `C=CC(=O)Nc1cccc(Nc2ncc3cc(-c4c(F)c(OC)cc(OC)c4F)c4nccn4c3n2)c1` [compound 74], the half-maximal inhibitory concentration (IC50) was below 0.05 µM.

On to `C=CC(=O)Nc1cc(N2CCN(CCOC)CC2)ccc1Nc1ncc2cc(-c3c(Cl)c(OC)cc(OC)c3Cl)c3nccn3c2n1` [compound 46], for which the concentration for half-maximal inhibition (IC50) was below 0.05 µM.

Turning to `C=CC(=O)Nc1ccc(F)c(F)c1Nc1ncc2cc(-c3c(F)c(OC)cc(OC)c3F)c3nccn3c2n1` [compound 78], the IC50 was in the range of 0.05 to 0.5 µM.

On to `C=CC(=O)Nc1cc(N2CCOC(C)C2)ccc1Nc1ncc2cc(-c3c(Cl)c(OC)cc(OC)c3Cl)c3nccn3c2n1` (stereo not shown) [compound 49], for which the IC50 was below 0.05 µM.

On to `C=CC(=O)Nc1cc(N2CCN(CC)CC2)cc(F)c1Nc1ncc2cc(-c3c(Cl)c(OC)cc(OC)c3Cl)c3nccn3c2n1` [compound 66], for which the concentration for half-maximal inhibition (IC50) is above 0.5 µM.

Turning to `C=CC(=O)Nc1cc(N2CCC[C@H]2COC)ccc1Nc1ncc2cc(-c3c(Cl)c(OC)cc(OC)c3Cl)c3nccn3c2n1` [compound 50], the half-inhibitory concentration (IC50) is below 0.05 µM.

`C=CC(=O)NC1CCCC1Nc1ncc2cc(-c3c(Cl)c(OC)cc(OC)c3Cl)c3nccn3c2n1` (stereo not shown) [Synthesis Example 1, N-(2-((6-(2,6-dichloro-3,5-dimethoxyphenyl)imidazo[1′,2′:1,6]pyrido[2,3-d]pyrimidin-2-yl)amino)cyclopentyl)acrylamide]: the IC50 lay in the range of 0.05 to 0.5 µM.

Consider `C=CC(=O)Nc1cc(CC)ccc1Nc1ncc2cc(-c3c(Cl)c(OC)cc(OC)c3Cl)c3nccn3c2n1` [compound 20], for which the half-inhibitory concentration (IC50) fell in the range of 0.05 to 0.5 µM.

As for `COc1cc(OC)c(Cl)c(-c2cc3cnc(-c4cncc(N5CCOCC5)c4)nc3n3ccnc23)c1Cl` [compound 81], the 50% inhibitory concentration (IC50) is above 0.5 µM.

Consider `C=CC(=O)Nc1cc(N2CCN(C(=O)C3CC3)CC2)ccc1Nc1ncc2cc(-c3c(Cl)c(OC)cc(OC)c3Cl)c3nccn3c2n1` [compound 42], for which the half-maximal inhibitory concentration (IC50) is below 0.05 µM.

With `C=CC(=O)Nc1cc(C2CCN(C)CC2)ccc1Nc1ncc2cc(-c3c(Cl)c(OC)cc(OC)c3Cl)c3nccn3c2n1` [compound 23], the half-maximal inhibitory concentration (IC50) is below 0.05 µM.

Consider `C=CC(=O)Nc1cc(C2CC2)ccc1Nc1ncc2cc(-c3c(Cl)c(OC)cc(OC)c3Cl)c3nccn3c2n1` [compound 21], for which the IC50 is 0.05 to 0.5 µM.

For the compound `C=CC(=O)Nc1cc(N2CCC(OC)CC2)ccc1Nc1ncc2cc(-c3c(Cl)c(OC)cc(OC)c3Cl)c3nccn3c2n1` [compound 40], the IC50 is below 0.05 µM.

As for `C=CC(=O)Nc1ccccc1Nc1ncc2cc(-c3c(F)c(OC)cc(OC)c3F)c3nccn3c2n1` [compound 75], the concentration for half-maximal inhibition (IC50) is below 0.05 µM.

`C=CC(=O)Nc1cc(N2CCCC2)ccc1Nc1ncc2cc(-c3c(Cl)c(OC)cc(OC)c3Cl)c3nccn3c2n1` [compound 33]: the IC50 is 0.05 to 0.5 µM.

Take `C=CC(=O)Nc1cc(N2CCN(CC3CC3)CC2)ccc1Nc1ncc2cc(-c3c(Cl)c(OC)cc(OC)c3Cl)c3nccn3c2n1` [compound 43]: the IC50 was below 0.05 µM.

What is called IC50 is the midpoint of a concentration-inhibition curve.
